Values quoted from earlier work as cited in patent publication US11377636B2, “Endogenous retrovirus transcription as a marker for primate naive pluripotent stem cells” (Max-Delbrück-Centrum für Molekulare Medizin in der …, priority 2014, dated 2022).
One block for each compound: values may come before it.

Key:
PKCγ = PKCγ (Homo sapiens, UniProt P05129)
PKCδ = PKCδ (Homo sapiens, UniProt Q05655)
PKCζ = target: T1, PKCζ (Homo sapiens, UniProt Q05513)
T1 sequence (Q05513 1-592): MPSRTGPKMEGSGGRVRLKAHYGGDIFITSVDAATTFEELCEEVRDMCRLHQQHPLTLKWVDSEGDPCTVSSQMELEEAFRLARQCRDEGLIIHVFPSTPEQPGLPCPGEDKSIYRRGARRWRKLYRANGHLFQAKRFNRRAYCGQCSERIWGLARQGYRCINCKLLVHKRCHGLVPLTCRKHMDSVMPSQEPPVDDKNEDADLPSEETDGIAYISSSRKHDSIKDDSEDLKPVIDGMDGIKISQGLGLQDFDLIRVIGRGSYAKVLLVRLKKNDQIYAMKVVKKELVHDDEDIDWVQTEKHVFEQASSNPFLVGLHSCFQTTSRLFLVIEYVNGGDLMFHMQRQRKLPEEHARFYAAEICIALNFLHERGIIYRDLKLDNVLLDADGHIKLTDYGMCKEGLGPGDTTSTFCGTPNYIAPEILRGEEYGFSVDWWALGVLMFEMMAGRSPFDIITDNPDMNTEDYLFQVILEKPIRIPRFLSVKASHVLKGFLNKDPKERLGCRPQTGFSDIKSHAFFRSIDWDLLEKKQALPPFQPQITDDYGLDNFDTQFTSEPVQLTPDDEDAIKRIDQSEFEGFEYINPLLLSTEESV

PKCβ = PKCβ (Homo sapiens, UniProt P05771)
PKCα = PKCα (Homo sapiens, UniProt P17252)
PKCμ = target: T2, PKCμ (Homo sapiens, UniProt Q15139); conditions: does not effectively inhibit PKCμ
T2 sequence (Q15139 1-912): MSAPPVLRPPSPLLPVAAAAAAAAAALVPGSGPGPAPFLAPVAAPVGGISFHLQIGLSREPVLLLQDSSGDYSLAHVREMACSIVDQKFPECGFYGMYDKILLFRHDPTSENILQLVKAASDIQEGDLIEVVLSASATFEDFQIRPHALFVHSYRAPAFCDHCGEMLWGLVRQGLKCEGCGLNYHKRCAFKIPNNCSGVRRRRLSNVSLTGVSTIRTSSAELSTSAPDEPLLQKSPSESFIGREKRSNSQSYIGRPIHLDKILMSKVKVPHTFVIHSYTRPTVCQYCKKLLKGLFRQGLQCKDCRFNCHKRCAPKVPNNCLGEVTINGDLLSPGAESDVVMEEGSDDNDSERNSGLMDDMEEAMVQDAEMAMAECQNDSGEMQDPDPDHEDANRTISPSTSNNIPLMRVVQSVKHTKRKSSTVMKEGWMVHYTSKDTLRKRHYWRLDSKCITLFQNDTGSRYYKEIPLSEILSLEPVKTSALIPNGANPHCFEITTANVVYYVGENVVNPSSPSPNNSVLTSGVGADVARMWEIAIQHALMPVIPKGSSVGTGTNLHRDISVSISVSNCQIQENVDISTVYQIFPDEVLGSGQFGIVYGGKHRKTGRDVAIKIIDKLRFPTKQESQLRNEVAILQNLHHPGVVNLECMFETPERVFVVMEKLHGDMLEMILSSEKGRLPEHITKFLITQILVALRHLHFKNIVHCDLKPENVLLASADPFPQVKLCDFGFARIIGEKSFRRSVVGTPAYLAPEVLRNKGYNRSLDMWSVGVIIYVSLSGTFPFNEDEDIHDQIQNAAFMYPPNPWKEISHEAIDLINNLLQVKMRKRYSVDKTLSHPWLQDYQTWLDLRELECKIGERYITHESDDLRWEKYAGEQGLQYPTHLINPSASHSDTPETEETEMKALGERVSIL

GSK3β = GSK3β (Homo sapiens, UniProt P49841)
KDR = KDR (Homo sapiens, UniProt P35968)
Src kinase = Src kinase (Homo sapiens, UniProt P12931)

PKCβ, sequence (P05771 whole entry, species assumed): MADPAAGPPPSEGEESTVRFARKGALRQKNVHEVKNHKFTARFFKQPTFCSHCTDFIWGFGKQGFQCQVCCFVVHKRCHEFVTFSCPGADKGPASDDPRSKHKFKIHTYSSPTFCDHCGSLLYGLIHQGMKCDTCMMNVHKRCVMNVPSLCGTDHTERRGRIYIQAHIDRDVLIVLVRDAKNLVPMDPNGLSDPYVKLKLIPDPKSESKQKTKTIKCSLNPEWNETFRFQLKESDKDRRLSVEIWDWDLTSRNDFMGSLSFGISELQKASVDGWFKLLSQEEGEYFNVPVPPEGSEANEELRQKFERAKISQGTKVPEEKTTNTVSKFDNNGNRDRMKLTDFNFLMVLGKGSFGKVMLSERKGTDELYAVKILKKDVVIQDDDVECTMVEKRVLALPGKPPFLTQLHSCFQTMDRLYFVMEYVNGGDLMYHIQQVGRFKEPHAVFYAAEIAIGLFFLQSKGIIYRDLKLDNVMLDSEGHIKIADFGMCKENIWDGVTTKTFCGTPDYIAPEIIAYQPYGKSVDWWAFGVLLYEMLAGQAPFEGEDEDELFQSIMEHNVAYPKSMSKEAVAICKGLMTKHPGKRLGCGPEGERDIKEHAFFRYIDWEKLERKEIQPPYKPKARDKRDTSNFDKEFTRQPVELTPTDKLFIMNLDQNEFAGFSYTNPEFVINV
GSK3β, sequence (P49841 whole entry, species assumed): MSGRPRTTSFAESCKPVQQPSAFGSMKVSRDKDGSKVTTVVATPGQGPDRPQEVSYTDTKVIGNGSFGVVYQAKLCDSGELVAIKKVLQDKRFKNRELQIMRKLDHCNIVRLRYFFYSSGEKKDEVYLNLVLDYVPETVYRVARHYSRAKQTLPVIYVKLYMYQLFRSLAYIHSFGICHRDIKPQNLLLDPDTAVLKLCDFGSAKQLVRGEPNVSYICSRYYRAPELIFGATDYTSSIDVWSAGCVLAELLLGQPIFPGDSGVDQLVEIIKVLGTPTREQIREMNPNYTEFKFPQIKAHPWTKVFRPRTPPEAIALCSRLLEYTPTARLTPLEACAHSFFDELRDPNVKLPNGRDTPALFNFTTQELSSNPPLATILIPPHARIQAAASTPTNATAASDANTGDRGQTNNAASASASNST
KDR, sequence (P35968 20-1356, species assumed): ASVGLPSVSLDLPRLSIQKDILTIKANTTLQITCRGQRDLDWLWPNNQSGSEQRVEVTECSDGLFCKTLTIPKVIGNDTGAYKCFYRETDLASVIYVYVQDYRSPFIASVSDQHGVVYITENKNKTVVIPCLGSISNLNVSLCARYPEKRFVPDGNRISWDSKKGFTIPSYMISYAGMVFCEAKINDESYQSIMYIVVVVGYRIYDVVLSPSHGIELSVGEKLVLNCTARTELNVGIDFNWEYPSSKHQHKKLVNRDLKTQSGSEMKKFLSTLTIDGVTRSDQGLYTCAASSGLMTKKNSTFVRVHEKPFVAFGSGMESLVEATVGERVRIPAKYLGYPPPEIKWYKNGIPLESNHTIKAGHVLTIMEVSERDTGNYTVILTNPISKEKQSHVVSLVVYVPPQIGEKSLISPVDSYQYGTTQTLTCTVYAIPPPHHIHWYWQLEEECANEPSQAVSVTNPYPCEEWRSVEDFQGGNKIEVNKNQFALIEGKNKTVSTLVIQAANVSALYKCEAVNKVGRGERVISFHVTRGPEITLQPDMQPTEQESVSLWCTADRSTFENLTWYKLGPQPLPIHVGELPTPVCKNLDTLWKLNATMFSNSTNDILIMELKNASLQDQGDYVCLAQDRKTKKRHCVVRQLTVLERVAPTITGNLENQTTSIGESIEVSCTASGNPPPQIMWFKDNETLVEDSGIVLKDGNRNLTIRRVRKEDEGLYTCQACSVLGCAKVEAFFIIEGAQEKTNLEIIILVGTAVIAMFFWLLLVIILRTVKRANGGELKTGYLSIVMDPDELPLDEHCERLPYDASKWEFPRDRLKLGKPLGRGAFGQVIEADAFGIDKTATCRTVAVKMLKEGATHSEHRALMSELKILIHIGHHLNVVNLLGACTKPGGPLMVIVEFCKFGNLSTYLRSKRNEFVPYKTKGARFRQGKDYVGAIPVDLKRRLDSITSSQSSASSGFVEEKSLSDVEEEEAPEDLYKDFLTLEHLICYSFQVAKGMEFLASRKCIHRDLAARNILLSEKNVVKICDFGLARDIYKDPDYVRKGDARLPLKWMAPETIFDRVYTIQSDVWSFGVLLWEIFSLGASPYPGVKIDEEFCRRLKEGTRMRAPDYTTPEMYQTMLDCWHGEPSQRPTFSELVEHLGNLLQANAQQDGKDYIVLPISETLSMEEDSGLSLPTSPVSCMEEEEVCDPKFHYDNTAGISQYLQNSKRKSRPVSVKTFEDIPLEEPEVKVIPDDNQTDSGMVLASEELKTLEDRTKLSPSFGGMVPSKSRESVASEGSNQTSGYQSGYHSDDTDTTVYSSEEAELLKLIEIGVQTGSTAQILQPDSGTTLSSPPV
PKCδ, sequence (Q05655 whole entry): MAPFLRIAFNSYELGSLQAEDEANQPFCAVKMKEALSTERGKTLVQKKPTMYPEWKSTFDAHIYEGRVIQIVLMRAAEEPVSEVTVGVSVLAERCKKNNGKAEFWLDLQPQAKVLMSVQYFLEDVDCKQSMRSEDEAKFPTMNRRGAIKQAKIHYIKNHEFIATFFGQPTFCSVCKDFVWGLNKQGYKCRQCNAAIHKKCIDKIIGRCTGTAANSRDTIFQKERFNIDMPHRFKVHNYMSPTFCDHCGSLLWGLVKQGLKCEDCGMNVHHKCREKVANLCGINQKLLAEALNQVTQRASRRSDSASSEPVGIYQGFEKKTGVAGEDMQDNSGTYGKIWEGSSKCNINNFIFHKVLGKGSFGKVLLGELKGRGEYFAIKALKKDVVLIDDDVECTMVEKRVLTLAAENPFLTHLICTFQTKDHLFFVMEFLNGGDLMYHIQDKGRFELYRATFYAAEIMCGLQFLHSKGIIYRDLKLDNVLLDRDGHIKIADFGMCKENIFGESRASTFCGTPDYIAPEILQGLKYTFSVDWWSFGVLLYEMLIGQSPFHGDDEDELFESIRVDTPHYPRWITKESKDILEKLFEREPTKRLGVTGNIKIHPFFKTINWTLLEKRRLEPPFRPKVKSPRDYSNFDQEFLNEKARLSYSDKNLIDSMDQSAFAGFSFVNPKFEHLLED

Compound: CN1C(=O)[C@@]23C[C@]4([C@]56C[C@@]78SS[C@@](CO)(C(=O)N7[C@H]5Nc5ccccc56)N(C)C8=O)c5ccccc5N[C@@H]4N2C(=O)[C@]1(CO)SS3 [Chaetocin]
cytotoxicity against HeLa cells IC50 (HeLa cells): 0.05 µg/mL

Compound: COc1ccc2c(c1)c(C1=C(c3c[nH]c4ccccc34)C(=O)NC1=O)cn2CCCN(C)C [Go6983]
IC50 (PKCγ): 6 nM
IC50 (PKCδ): 10 nM
IC50 (PKCζ): 60 nM
IC50 (PKCβ): 7 nM
IC50 (PKCα): 7 nM
IC50 (PKCμ): 20000 nM

IC50 (GSK3β): 53 nM
Compound: Cc1[nH]c2ccccc2c1C1=C(NCCc2ccc(F)cc2)C(=O)N(C)C1=O [IM-12]

inhibition on KDR (KDR): little inhibition
IC50 (Src kinase): 6 nM
Compound: WH-4-023
